Data taken from ChEMBL document CHEMBL1250452, “Bradykinin B1 receptor antagonists as potential therapeutic agents for pain” (J Med Chem, 2010).

Columns and labels:
[1] = Half life in Sprague-Dawley rat at 2 mg/kg, iv; format: ADME, organism-based; design: dose 2 mg/kg, route intravenous; details: in vivo
[2] = test system: Rattus norvegicus; test: Antiinflammatory activity in rat assessed as reversal of carrageenan-induced hyperalgesia at 3 mg/kg, ip; format: functional; details: route intraperitoneal
[3] = target: T1, B1 bradykinin receptor (Oryctolagus cuniculus, UniProt P48748); test: Inhibition of rabbit bradykinin B1 receptor
T1 sequence (P48748 whole entry): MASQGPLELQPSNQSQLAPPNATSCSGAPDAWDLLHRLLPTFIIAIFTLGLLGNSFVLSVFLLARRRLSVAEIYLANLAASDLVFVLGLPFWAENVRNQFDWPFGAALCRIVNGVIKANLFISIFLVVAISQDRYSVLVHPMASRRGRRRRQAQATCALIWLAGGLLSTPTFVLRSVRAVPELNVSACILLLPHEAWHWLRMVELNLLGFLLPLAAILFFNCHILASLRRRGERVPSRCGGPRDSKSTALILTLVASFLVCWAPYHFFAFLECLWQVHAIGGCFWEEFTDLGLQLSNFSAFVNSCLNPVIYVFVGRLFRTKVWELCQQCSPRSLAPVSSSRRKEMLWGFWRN

[4] = target: T2, B1 bradykinin receptor (Rattus norvegicus, UniProt P97583); test: Inhibition of rat bradykinin B1 receptor
T2 sequence (P97583 whole entry): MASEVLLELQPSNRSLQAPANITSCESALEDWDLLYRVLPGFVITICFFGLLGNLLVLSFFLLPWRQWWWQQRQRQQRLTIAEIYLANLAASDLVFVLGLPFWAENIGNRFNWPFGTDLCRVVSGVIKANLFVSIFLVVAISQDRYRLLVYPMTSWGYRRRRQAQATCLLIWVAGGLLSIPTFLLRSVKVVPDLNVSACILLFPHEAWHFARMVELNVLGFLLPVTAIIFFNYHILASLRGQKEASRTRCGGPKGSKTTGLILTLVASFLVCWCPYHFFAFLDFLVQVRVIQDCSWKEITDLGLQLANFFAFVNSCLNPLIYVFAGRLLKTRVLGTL

[5] = target: T3, B1 bradykinin receptor (Canis lupus familiaris, UniProt Q9BDQ5); test: Antagonist activity at dog bradykinin B1 receptor; format: functional
T3 sequence (Q9BDQ5 whole entry): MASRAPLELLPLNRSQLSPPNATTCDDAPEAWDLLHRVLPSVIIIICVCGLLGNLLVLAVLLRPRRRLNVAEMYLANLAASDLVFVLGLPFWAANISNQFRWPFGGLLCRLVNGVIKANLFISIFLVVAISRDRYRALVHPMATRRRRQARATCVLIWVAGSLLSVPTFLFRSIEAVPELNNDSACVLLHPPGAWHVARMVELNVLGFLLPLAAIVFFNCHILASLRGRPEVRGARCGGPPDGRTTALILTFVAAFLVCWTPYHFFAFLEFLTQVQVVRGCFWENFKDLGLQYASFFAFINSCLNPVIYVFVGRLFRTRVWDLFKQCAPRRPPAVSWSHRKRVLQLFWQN

[6] = Oral bioavailability in Sprague-Dawley rat at 7 mg/kg; format: ADME, organism-based; details: in vivo
[7] = target: T4, B1 bradykinin receptor (Macaca mulatta, UniProt Q8HZP2); test: Binding affinity to monkey bradykinin B1 receptor
T4 sequence (Q8HZP2 whole entry): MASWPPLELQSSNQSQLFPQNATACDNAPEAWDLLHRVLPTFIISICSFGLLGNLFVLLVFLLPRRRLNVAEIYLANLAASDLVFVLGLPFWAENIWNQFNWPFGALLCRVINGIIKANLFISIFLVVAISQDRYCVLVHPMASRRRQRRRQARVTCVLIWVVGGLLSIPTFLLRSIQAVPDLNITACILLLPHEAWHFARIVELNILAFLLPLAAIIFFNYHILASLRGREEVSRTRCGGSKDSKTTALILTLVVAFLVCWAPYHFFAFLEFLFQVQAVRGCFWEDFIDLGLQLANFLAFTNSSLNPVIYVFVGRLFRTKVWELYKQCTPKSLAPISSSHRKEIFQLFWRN

[8] = Half life in Sprague-Dawley rat at 0.7 mg/kg, iv; format: ADME, organism-based; design: dose 0.7 mg/kg, route intravenous; details: in vivo
[9] = target: T5, B1 bradykinin receptor (Homo sapiens, UniProt P46663); test: Antagonist activity at human bradykinin B1 receptor in human MR5 cells assessed as [3H]inositol phosphate accumulation; format: functional, cell-based
T5 sequence (P46663 whole entry): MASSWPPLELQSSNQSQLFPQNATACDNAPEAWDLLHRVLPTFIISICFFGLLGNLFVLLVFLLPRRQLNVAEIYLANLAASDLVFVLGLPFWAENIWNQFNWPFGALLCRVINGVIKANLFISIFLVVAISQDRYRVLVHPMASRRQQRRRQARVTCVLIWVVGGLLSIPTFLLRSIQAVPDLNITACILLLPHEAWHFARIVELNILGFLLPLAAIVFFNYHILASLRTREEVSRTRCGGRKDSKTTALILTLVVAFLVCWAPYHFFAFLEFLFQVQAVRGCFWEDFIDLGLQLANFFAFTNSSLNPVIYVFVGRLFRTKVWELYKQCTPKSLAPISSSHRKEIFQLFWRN

## CCCN1C(=O)[C@H](NC(=O)Nc2ccc(N3CCN(c4ccncc4)CC3)cc2)N=C(CCc2ccccc2)c2ccccc21
[1]
  half-life: 2.7 h
[2]
  Activity: 89%

## O=C(C[C@@H]1C(=O)Nc2ccccc2N1S(=O)(=O)c1ccc(Cl)c(Cl)c1)NCCc1ccc(C2=NCCN2)cc1
[3]
  IC50: 0.26 nM
[4]
  IC50: 163 nM
[5]
  IC50: 16.3 nM

## CN1CCN(C(=O)C2CCN(S(=O)(=O)c3ccc(NCC(c4ccccc4)c4ccccc4)c(C(=O)N4CCOCC4)c3)CC2)CC1
[6]
  bioavailability: 42%
[7]
  Ki: 7.7 nM
[8]
  half-life: 2.7 h

## O=C(Nc1[nH]nc(C(=O)NCCC2CCN(c3ccncc3)CC2)c1Br)c1ccccc1Cl
[9]
  IC50: 3.5 nM

## O=C(Nc1ccc(S(=O)(=O)Nc2ccccc2C(=O)c2ccccc2)cc1)OCC1CCCO1 (configuration not stated)
[1]
  half-life: 9.7 h

## CC(=O)Nc1ccc(S(=O)(=O)Nc2ccccc2C(=O)c2ccccc2)cc1
[1]
  half-life: 0.3 h

## O=C(NCCCN1CCCCC1)Nc1ccc(S(=O)(=O)Nc2ccccc2C(=O)c2ccccc2)cc1
[1]
  half-life: 14 h
